The source of these data is patent publication US20080227724A1, “Anti-Inflammatory Agents” (CAMBRIDGE UNIVERSITY TECHNICAL SERVICES LIMITED, priority 2003, published 2008).

Bridge positions count the residues as written; N and C are the ends. Square brackets hold non-standard residues; d marks the D form. Ends that are not written are not given here.

Series [1] is classed as in vitro ADME, human. The text has this: As an approach to identifying such stable analogs, various derivatives of (S)-3-(undec-10-enoyl)-aminoglutarimide have been tested for their stability in serum.
Series [2] deals with TNF-alpha. Put plainly: Sub-lethal LPS-induced endotoxemia model, circulating TNF-alpha. It counts as in vivo, CD-1 mice. As to conditions: for block of TNF-alpha stimulation: at a suitable dose. The protocol: The anti-inflammatory activity of the compounds of the invention was determined in vivo using a sub-lethal LPS-induced endotoxemia model. Adult male CD-1 mice (n=6 per group) were pretreated with various agents (vehicle, compounds of the invention or positive control agents such as the steroid dexamethasone) by sub-cutaneous injection 30 minutes prior to an acute inflammatory challenge with 750 μg of bacterial lipopolysaccharide (from E. Coli 0111:B4; Sigma catalog #L-4130) via the intraperitoneal route. The vehicle in each case was 0.6% DMSO, 1% carboxymethyl cellulose, or alternatively 1% carboxymethylcellulose alone. For some of the compounds, this formulation results in a finely divided suspension or slurry rather than a clear solution. Two hours after LPS challenge, the animals were sacrificed and blood was drawn by cardiac puncture. The level of the pro-inflammatory cytokine TNF-alpha was determined using the Quantikine M ELISA (R&D Systems) for murine TNF-alpha, and reported as the mean ±standard error for each group.
By 2 hours after the LPS challenge, this had increased by more than 1,000 fold to an average of 20,000 pg/ml, representing a sensitive index of inflammatory activation. Pre-treatment with known anti-inflammatory drugs (such as the steroid dexamethasone) reduced the stimulation of TNF-alpha by up to 85-95%, depending on the dose given.
In a separate series of experiments, the compounds of the invention were administered to animals as an oral suspension, formulated in the same way as for the sub-cutaneous dosing experiments, followed 1 hour later with the LPS challenge exactly as described above. […] All five compounds were maximally active at a dose below 30 mg/kg.

The conditions of series [3]: cited from earlier work.
For series [4], the system named is chemokine-induced migration. Put plainly: Chemokine-induced leukocyte migration in vitro (prior art). It counts as cell-based. As to conditions: parental molecule (S)-3-(undec-10-enoyl)-aminoglutarimide.
Series [5] concerns MCP-1 induced THP-1 cell migration. Put plainly: Inhibition of MCP-1 induced leukocyte migration (transwell migration assay). It counts as cell-based, human. As to conditions: inhibition of MCP-1 induced THP-1 cell migration, dose-response curves. The protocol:
In principle, this assay consists of two chambers separated by a porous membrane. The chemoattractant is placed in the lower compartment and the cells are placed in the upper compartment. After incubation for a period at 37° C. the cells move towards the chemoattractant, and the number of cells in the lower compartment is proportional to the chemoattractant activity (relative to a series of controls). The THP-1 cell line (European Cell culture Collection) were used as the leukocyte cell population. The following procedure is used for testing the invention compounds for MCP-1 induced leukocyte migration: First, the cell suspension to be placed in the upper compartment is prepared. The THP-1 cells are pelleted by centrifugation (770×g; 4 mins) and washed with Geys Balanced Salt Solution with 1 mg/ml BSA (GBSS+BSA). This wash is then repeated, and the cells repelleted before being resuspended in a small volume of GBSS+BSA for counting, for example using a standard haemocytometer. The volume of GBSS+BSA is then adjusted depending on the number of cells present so that the cells are at final density of 4.45×10^6 cells per ml of GBSS+BSA. […] The number of cells migrated into the lower chamber under each condition can then be determined by a number of methods, including direct counting, labelling with fluorescent or radioactive markers or through the use of a vital dye. […]

Setting [6] is: oral suspension 1 hour before LPS.
Where [7] appears, read: sub-cutaneous injection 30 minutes prior to LPS.

For `C=CCCCCCCCCC(=O)N[C@H]1CCC(=O)NC1=O` [NR58,4, (S)-3-(undec-10-enoyl)-aminoglutarimide], the “stability of the aminoglutarimide ring in serum” value in series [1] is listed as “susceptible to enzymatic ring opening in serum”.
As to “(S)-(Z)-3-(octadec-9-enoyl)amino-caprolactam [Example 10]”, the “block of TNF-alpha stimulation” value in series [2] (setting [6]) was “able to block TNF-alpha stimulation”; in series [2] (setting [7]), “block TNF-alpha stimulation to a similar extent to dexamethasone”.
For “(R)-3-hexadecanoylamino-caprolactam [Example 7]” the same measures were “able to block TNF-alpha stimulation” and “block TNF-alpha stimulation to a similar extent to dexamethasone”.
Regarding “(S)-(Z)-3-(hexadec-9-enoyl)amino-caprolactam [Example 9]”, the “block of TNF-alpha stimulation” value is “able to block TNF-alpha stimulation” in series [2] (setting [6]) and “block TNF-alpha stimulation to a similar extent to dexamethasone” in series [2] (setting [7]).
In the case of `C[C@@H]1C[C@H]2[C@@H]3CCC4=CC(=O)C=C[C@]4(C)[C@@]3(F)[C@@H](O)C[C@]2(C)[C@@]1(O)C(=O)CO` [dexamethasone, reference compound], the “reduction of the stimulation of TNF-alpha” value in series [2] (pre-treatment, 2 hours after LPS challenge, depending on the dose given) is 85-95%.
For the molecule “c(DCys-DGln-DIle-DTrp-DLys-DGln-DLys-DPro-DAsp-DLeu-DCys)-NH2 ([dC][dQ][dI][dW][dK][dQ][dK][dP][dD][dL][dC]-NH2; disulfide 1-11 (inferred)) [NR58-3.14.3]”, the “half-life period of clearance from blood plasma” value in series [3] (after intravenous injection) was “less than 30 minutes”. Besides, the oral bioavailability result in series [3] (in vivo, po) is recorded as “not orally bioavailable”.
For `C=CCCCCCCCCC(=O)[C@@H]1CCCNC1=O` [(S)-3-(undec-10-enoyl)-tetrahydropyridin-2-one], in series [1] (human, 7 days), the “time completely stable in human serum” value was “at least 7 days”. The “potency compared with the parental molecule” value in series [4] is listed as “considerably reduced potency”.
For the molecule “(S)-3-(2′,2′-Dimethyl-propionyl)amino-caprolactam [Example 20]”, the “block of TNF-alpha stimulation” value in series [2] (setting [6]) is on record as “able to block TNF-alpha stimulation”; in series [2] (setting [7]), “block TNF-alpha stimulation to a similar extent to dexamethasone”.
As to “(S)-3-(2′,2′-dimethyl-dodecanoyl)amino-caprolactam [Example 12]”, the “(S)-enantiomer more active than the (R)-enantiomer” value in series [5] is given as 10-50 fold. The “block of TNF-alpha stimulation” value in series [2] (setting [6]) is “able to block TNF-alpha stimulation”; in series [2] (setting [7]) it was “block TNF-alpha stimulation to a similar extent to dexamethasone”.
